The results in this text go back to US20240052317A1, “Methods for Differentiating Stromal Cells or Pericytes” (Lung Biotechnology PBC, priority 2022, published 2024).

Where a name gives a salt, the structure may show the parent alone.

This assay deals with human pulmonary artery endothelial cells (HPAEC). The assay is described as follows: Tube formation assay of test differentiated cells co-cultured with HPAEC. As to conditions: co-culture of HPAEC and test differentiated cells, 1 μM imatinib mesylate, FIG. 2. It is filed as cell-based. The protocol: Next, test differentiated cells were further characterized with a tube formation assay using the following protocol. Test differentiated cells were co-cultured with human pulmonary artery endothelial cells (HPAEC) with or without 1 μM imatinib mesylate to inhibit angiogenesis, and tube formation was observed. Specifically, the wells of 96-well plates (Costar, Product No. 387) were coated with 30 μL of Matrigel® GFR. Plates were spun for 1 minute at 1,500 rotations per minute (RPM) and incubated for 30 minutes at 30° C. Cells were then lifted from culture plates, counted and resuspended in DMEM/F12 media such that 30 μL of media was available for each well. Each well received 30,000 HPAEC and 5,000 differentiated cells.
Green labeling of HPAEC was performed using Nuclight Green Lentivirus, Essen/Sartorius #4475. 100 μL of transfection reagent was added to 5 mL of media and mixed. In another 5 mL of media, 10 μL of needed lentivirus was added and mixed. Both 5 mL preparations were then added together, mixed, and added to an approximately 70% confluent plate of HPAEC or pericytes. Plates were allowed grow overnight in incubator.
Media and lentivirus preparation was removed and replaced with fresh media, and plates were incubated overnight. Plates were incubated for one week, using 1 μg of puromycin in the media for daily media changes […]

For `Cc1ccc(NC(=O)c2ccc(CN3CCN(C)CC3)cc2)cc1Nc1nccc(-c2cccnc2)n1` [imatinib mesylate], the “tube formation and co-localization with HPAEC” value is reported as “did not”.
